Source: patent US10508102B2, “Inhibitors of cellular necrosis and related methods” (President and Fellows of Harvard College, priority 2014, dated 2019)
Read-outs that look alike come from different tables or passages of the source. Each block holds one compound with its values, some of them ahead of it.

Columns and labels:
[1] = tested on: human FADD-deficient Jurkat T cells; experiment: Cellular necrosis inhibition, FADD-deficient Jurkat T cells challenged with TNF-alpha (CellTiter-Glo viability); details: 30 hours, ATP-based cell viability
Protocol: FADD−/− Jurkat cells (Juo P, et al. Cell Growth Differ. 1999, 10(12):797-804) were seeded at the density of 5*10^5 cells/mL into 96 well white plates (Costar) at 100 μL/well. […] Cells were treated in duplicate with various concentrations of test compounds in the presence or absence of 10 ng/ml human TNF-alpha. (Cell Sciences).
After 30 hours, viability of the cells was determined using luminescent ATP-based cell viability assay (CellTiter-Glo, Promega). Percentage of protection by the compound was calculated as a ratio of the cps (counts per second) value in the well treated with the test compound and TNF-alpha. to the cps value in the well treated with the compound alone. Assays were repeated twice, and the average EC50 value over both assays was calculated.
Exemplary compounds of structure (II) were screened for anti-necrotic activity according to the general procedures of Example 7.

[2] = biological target: GST-human RIP1 kinase domain (amino acids 1-327) (Homo sapiens (Human), UniProt Q13546); experiment: RIP1 kinase ADP-Glo assay
Protocol: RIP1 kinase assays were performed using ADP-Glo assay (Promega) according to manufacturer's protocol. […] Reactions were performed for 4 hr at room temperature and stopped by incubation with ADP-Glo reagent for 40 min at room temperature. Luminescent signal was developed by incubation with Kinase Detection reagent for 30 min at room temperature. Signal was determined using Victor3V platereader (Perkin Elmer). Non-linear regression to calculate EC50 values was performed using GraphPad Prism software package.

[3] = 10 ng/ml human TNF-alpha, read-out: EC50 (nM) TNFα
[4] = 10 ng/ml human TNF-alpha plus Smac mimetic (10 nM SM-164), read-out: EC50 (nM) TNFα + Smac

Sequence of GST-human RIP1 kinase domain (amino acids 1-327) (Q13546 1-327): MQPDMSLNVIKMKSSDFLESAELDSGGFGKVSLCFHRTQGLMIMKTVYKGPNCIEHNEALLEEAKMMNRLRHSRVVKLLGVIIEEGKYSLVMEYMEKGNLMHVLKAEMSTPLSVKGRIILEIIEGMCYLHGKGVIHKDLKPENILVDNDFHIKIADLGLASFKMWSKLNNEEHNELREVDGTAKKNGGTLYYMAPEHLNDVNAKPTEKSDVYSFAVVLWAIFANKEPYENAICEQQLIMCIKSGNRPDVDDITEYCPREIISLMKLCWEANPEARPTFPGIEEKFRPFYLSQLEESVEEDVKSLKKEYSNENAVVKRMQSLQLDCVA

SMILES: CN1C(=O)N[C@H](Cc2c[nH]c3c(Cl)c(Cl)ccc23)C1=O [B, reference compound]
EC50 [1, 3]: > 100000 nM

EC50 [2]: 93.7 nM
SMILES: CN1C(=O)N[C@H](Cc2c[nH]c3c(Cl)c(F)ccc23)C1=O [Compound (Ia), (R)-5-((7-chloro-6-fluoro-1H-indol-3-yl)methyl)-3-methylimidazolidine-2,4-dione]
EC50 [1, 4]: 86.6 nM

SMILES: CN1C(=O)N[C@H](Cc2c[nH]c3c(Cl)cccc23)C1=O [Compound A, reference compound]
EC50 [1, 4]: 324 nM
EC50 [1, 3]: 90.5 nM

SMILES: O=C1NC(Cc2c[nH]c3ccccc23)C(=O)N1Cc1ccc(Cl)cc1 (centres unmarked) [Compound C1, reference compound]
EC50 [1, 3]: 343 nM

SMILES: CN1C(=O)N[C@H](Cc2c[nH]c3c(Cl)ccc(F)c23)C1=O [Compound E, reference compound]
EC50 [1, 4]: 8330 nM
EC50 [1, 3]: 2330 nM

SMILES: CN1C(=O)N[C@H](Cc2c[nH]c3c(Cl)cc(F)cc23)C1=O [Compound F, reference compound]
EC50 [1, 4]: > 100000 nM
EC50 [1, 3]: 10500 nM

SMILES: O=C1NC(Cc2c[nH]c3c(Cl)cccc23)C(=O)N1Cc1ccccc1F (centres unmarked) [II-1, 5-((7-chloro-1H-indol-3-yl)methyl)-3-(2-fluorobenzyl)imidazolidine-2,4-dione]
EC50 [1, 4]: 11000 nM
EC50 [1, 3]: 159 nM

EC50 [2]: < 100 nM
SMILES: O=C1NC(Cc2c[nH]c3c(Cl)cccc23)C(=O)N1Cc1cccc(F)c1 (centres unmarked) [II-2, 5-((7-chloro-1H-indol-3-yl)methyl)-3-(3-fluorobenzyl)imidazolidine-2,4-dione]
EC50 [1, 4]: 895 nM
EC50 [1, 3]: 41 nM

EC50 [2]: < 100 nM
SMILES: O=C1NC(Cc2c[nH]c3c(Cl)cccc23)C(=O)N1Cc1ccc(F)c(F)c1 (centres unmarked) [II-3, 5-((7-chloro-1H-indol-3-yl)methyl)-3-(3,4-difluorobenzyl)imidazolidine-2,4-dione]
EC50 [1, 4]: 426 nM
EC50 [1, 3]: 89 nM

SMILES: O=C1NC(Cc2c[nH]c3c(Cl)cccc23)C(=O)N1Cc1ccc(F)cc1 (centres unmarked) [II-4, 5-((7-chloro-1H-indol-3-yl)methyl)-3-(4-fluorobenzyl)imidazolidine-2,4-dione]
EC50 [1, 4]: 867 nM
EC50 [1, 3]: 220 nM

SMILES: O=C1NC(Cc2c[nH]c3c(Cl)c(F)ccc23)C(=O)N1Cc1ccccc1F (centres unmarked) [II-5, 5-((7-chloro-6-fluoro-1H-indol-3-yl)methyl)-3-(2-fluorobenzyl)imidazolidine-2,4-dione]
EC50 [1, 4]: 892 nM
EC50 [1, 3]: 235 nM

SMILES: O=C1NC(Cc2c[nH]c3c(Cl)c(F)ccc23)C(=O)N1Cc1cccc(F)c1F (centres unmarked) [II-6, 5-((7-chloro-6-fluoro-1H-indol-3-yl)methyl)-3-(2,3-difluorobenzyl)imidazolidine-2,4-dione]
EC50 [1, 4]: 822 nM
EC50 [1, 3]: 50 nM

SMILES: O=C1NC(Cc2c[nH]c3c(Cl)c(F)ccc23)C(=O)N1Cc1ccc(F)c(F)c1 (centres unmarked) [II-7, 5-((7-chloro-6-fluoro-1H-indol-3-yl)methyl)-3-(3,4-difluorobenzyl)imidazolidine-2,4-dione]
EC50 [1, 4]: 722 nM
EC50 [1, 3]: 121 nM
